Measurements: PubChem BioAssay (NCI)
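A five-concentration, 48-hour dose response in 96-well plates underlies each endpoint, interpolated linearly between surrounding concentrations. The concentration for full growth arrest is given as TGI.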

Columns and labels:
Assay in all cases: NCI tumour cell line growth inhibition, 48 h
[1] = tested on: U251 CNS
[2] = tested on: HL-60(TB) leukemia
[3] = tested on: NCI-H460 lung
[4] = tested on: SK-MEL-5 melanoma
[5] = tested on: LOX IMVI melanoma
[6] = tested on: RPMI-8226 leukemia
[7] = tested on: HCT-15 colon
[8] = tested on: DLD-1 colon
[9] = tested on: KM20L2 colon
[10] = tested on: HOP-62 NSCLC
[11] = tested on: MOLT-4 leukemia
[12] = tested on: CAKI-1 renal
[13] = tested on: HCC-2998 colon
[14] = tested on: SNB-75 CNS
[15] = tested on: SK-MEL-2 melanoma
[16] = tested on: K-562 leukemia
[17] = tested on: M14 melanoma
[18] = tested on: TK-10 renal
[19] = tested on: DMS 273 small cell lung
[20] = tested on: COLO 205 colon
[21] = tested on: OVCAR-4 ovarian
[22] = tested on: M19-MEL melanoma
[23] = tested on: SF-268 CNS
[24] = tested on: UACC-62 melanoma
[25] = tested on: SNB-19 CNS
[26] = tested on: ACHN renal
[27] = tested on: HOP-92 NSCLC
[28] = tested on: SF-295 CNS
[29] = tested on: LXFL 529 NSCLC
[30] = tested on: OVCAR-3 ovarian
[31] = tested on: UACC-257 melanoma
[32] = tested on: SK-OV-3 ovarian
[33] = tested on: HT29 colon
[34] = tested on: KM12 colon
[35] = tested on: SW-620 colon
[36] = tested on: EKVX NSCLC
[37] = tested on: IGROV1 ovarian
[38] = tested on: CCRF-CEM leukemia
[39] = tested on: SN12C renal
[40] = tested on: OVCAR-5 ovarian
[41] = tested on: DMS 114 small cell lung
[42] = tested on: NCI-H23 lung
[43] = tested on: RXF-631 renal
[44] = tested on: NCI-H226 lung
[45] = tested on: A498 renal
[46] = tested on: 786-0 renal
[47] = tested on: OVCAR-8 ovarian
[48] = tested on: XF 498 CNS
[49] = tested on: UO-31 renal
[50] = tested on: SF-539 CNS
[51] = tested on: MALME-3M melanoma
[52] = tested on: SK-MEL-28 melanoma
[53] = tested on: A549 NSCLC
[54] = tested on: NCI-H522 lung
[55] = tested on: HCT-116 colon
[56] = tested on: SR leukemia
[57] = tested on: SNB-78 CNS
[58] = tested on: RXF 393 renal

`Cc1cc(N(CCC#N)CCC#N)ccc1/C=C\C(=O)Nc1ccccc1` was tested, and the TGI [1] was greater than 100 µM, the TGI [2] was greater than 100 µM and the TGI [3] was greater than 100 µM. For the same molecule, the TGI [4] was greater than 100 µM, the TGI [5] was greater than 100 µM and the TGI [6] was greater than 100 µM. It also gave a TGI [7] greater than 100 µM, a TGI [8] greater than 100 µM and a TGI [9] greater than 100 µM. The TGI [10] was greater than 100 µM, the TGI [11] was greater than 100 µM and the TGI [12] was greater than 100 µM. The TGI [13] was 80.5 µM, the TGI [14] was greater than 100 µM and the TGI [15] was greater than 100 µM. The TGI [16] was greater than 100 µM, the TGI [17] was greater than 100 µM and the TGI [18] was greater than 100 µM. The TGI [19] was greater than 100 µM, the TGI [20] was greater than 100 µM and the TGI [21] was greater than 100 µM. It also gave a TGI [22] greater than 100 µM, a TGI [23] greater than 100 µM and a TGI [24] greater than 100 µM. For the same molecule, the TGI [25] was greater than 100 µM, the TGI [26] was greater than 100 µM and the TGI [27] was greater than 100 µM. For the same molecule, the TGI [28] was greater than 100 µM, the TGI [29] was greater than 100 µM and the TGI [30] was greater than 100 µM. For the same molecule, the TGI [31] was greater than 100 µM, the TGI [32] was greater than 100 µM and the TGI [33] was greater than 100 µM. The TGI [34] was greater than 100 µM, the TGI [35] was greater than 100 µM and the TGI [36] was greater than 100 µM. The TGI [37] was greater than 100 µM, the TGI [38] was greater than 100 µM and the TGI [39] was greater than 100 µM. The TGI [40] was greater than 100 µM, the TGI [41] was greater than 100 µM and the TGI [42] was greater than 100 µM. The TGI [43] was greater than 100 µM, the TGI [44] was greater than 100 µM and the TGI [45] was greater than 100 µM. For the same molecule, the TGI [46] was greater than 100 µM, the TGI [47] was greater than 100 µM and the TGI [48] was greater than 100 µM. It also gave a TGI [49] greater than 100 µM, a TGI [50] greater than 100 µM and a TGI [51] greater than 100 µM. The TGI [52] was greater than 100 µM, the TGI [53] was greater than 100 µM and the TGI [54] was greater than 100 µM. The TGI [55] was greater than 100 µM.

In the case of `Nc1ccc(C(c2ccccc2)(c2ccccc2)c2ccccc2)cc1`, the TGI [1] is reported as 62.1 µM, the TGI [2] is reported as 91.6 µM and the TGI [3] is reported as greater than 100 µM. The TGI [4] was greater than 100 µM, the TGI [5] was greater than 100 µM and the TGI [6] was greater than 100 µM. It also gave a TGI [7] greater than 100 µM, a TGI [8] greater than 100 µM and a TGI [10] of 75.8 µM. It also gave a TGI [11] greater than 100 µM, a TGI [13] greater than 100 µM and a TGI [14] of 53.9 µM. It also gave a TGI [15] greater than 100 µM, a TGI [16] greater than 100 µM and a TGI [17] of 30.1 µM. The TGI [18] was 95.3 µM, the TGI [19] was greater than 100 µM and the TGI [20] was greater than 100 µM. It also gave a TGI [21] greater than 100 µM, a TGI [22] greater than 100 µM and a TGI [23] greater than 100 µM. It also gave a TGI [24] of 41.3 µM, a TGI [26] greater than 100 µM and a TGI [27] of 31.1 µM. The TGI [28] was 34.4 µM, the TGI [29] was greater than 100 µM and the TGI [30] was greater than 100 µM. The TGI [56] was greater than 100 µM, the TGI [31] was greater than 100 µM and the TGI [32] was 35.7 µM. For the same molecule, the TGI [33] was greater than 100 µM, the TGI [34] was greater than 100 µM and the TGI [35] was greater than 100 µM. The TGI [36] was greater than 100 µM, the TGI [37] was greater than 100 µM and the TGI [38] was greater than 100 µM. For the same molecule, the TGI [57] was 77 µM, the TGI [39] was greater than 100 µM and the TGI [41] was greater than 100 µM. It also gave a TGI [42] of 88.4 µM, a TGI [43] greater than 100 µM and a TGI [45] greater than 100 µM. The TGI [46] was greater than 100 µM, the TGI [47] was greater than 100 µM and the TGI [48] was 41.1 µM. For the same molecule, the TGI [50] was greater than 100 µM, the TGI [51] was greater than 100 µM and the TGI [52] was 56.1 µM. For the same molecule, the TGI [53] was greater than 100 µM, the TGI [58] was 56 µM and the TGI [55] was greater than 100 µM.
